Reference: patent US10294234B2, “HIV inhibitor compounds” (priority 2017, dated 2019)
Where two headings read alike, the source gives them in different places.

Key:
[1] = test system: HIV-1 (IIIB) in MT-4 cells; assay: MT-4 HIV assay; format: cell-based; conditions: Human immunodeficiency virus 1, MT4, 120 h
How it was run: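 MT-4 cells infected with HIV-1 IIIB (1:250 stock dilution) were incubated with 1:3 serially diluted compounds in RPMI with 10% FBS for 5 days at 37 °C. Cell Titer Glo luminescence was the readout. Plates included mock-infected wells, no-drug wells and 5 uM AZT controls.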

[2] = How it was run: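 Compounds at 1 uM were incubated in duplicate with dog, rat or human liver microsomes (0.5 mg/mL protein) and an NADPH-regenerating system, sampled at 2, 12, 25, 45 and 65 minutes. Remaining parent was measured by LC/MS/MS, and Clint was calculated from the in vitro t1/2.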
[3] = HIV-1 (IIIB), MT-4 cells, 5 days, Cell Titer Glo, read-out: EC50
[4] = human liver microsomes 0.5 mg/mL, 1 uM compound, NADPH
[5] = rat liver microsomes 0.5 mg/mL, 1 uM compound, NADPH

Human Pred Cl. [2, 4] [L/H/kg]	Rat. Pred. Cl. [2, 5] [L/H/kg]	Structure (SMILES)	EC50 [1, 3] [nM]	Human Pred Cl. ([2]; human, microsomes) [L/H/kg]	Rat. Pred. Cl. ([2]; rat, microsomes) [L/H/kg]	EC50 [1] [nM]
<0.11	–	COC(=O)N[C@H](C(=O)N[C@@H](Cc1ccc(C#Cc2ccc(N3CCN([C@@H]4CCOC4)CC3)nc2)cc1)[C@@H](O)CN(Cc1c(F)cc(-c2ccn(C(F)F)n2)cc1F)NC(=O)[C@@H](NC(=O)OC)C(C)(C)C(F)(F)F)C(C)(C)C(F)(F)F [Example 146, Methyl ((5S,8S,9S,14S)-11-(4-(1-(difluoromethyl)-1H-pyrazol-3-yl)-2,6-difluorobenzyl)-16,16,16-trifluoro-9-hydroxy-15,15-dimethyl-3,6,13-trioxo-8-(4-((6-(4-((R)-tetrahydrofuran-3-yl)piperazin-1-yl)pyridin-3-yl)ethynyl)benzyl)-5-(1,1,1-trifluoro-2-methylpropan-2-yl)-2-oxa-4,7,11,12-tetraazahexadecan-14-yl)carbamate]	8.17	–	–	–
–	–	COC(=O)N[C@H](C(=O)N[C@@H](Cc1ccc(C#Cc2ccc(N3CC4CCC(C3)N4C3COC3)nc2)cc1)[C@@H](O)CN(Cc1c(F)cc(-c2ccc(N3CC4CCC(C3)N4C3COC3)nc2)cc1F)NC(=O)[C@@H](NC(=O)OC)C(C)(C)C(F)(F)F)C(C)(C)C(F)(F)F [Example 147, Methyl ((5S,8S,9S,14S)-11-(2,6-difluoro-4-(6-(8-(oxetan-3-yl)-3,8-diazabicyclo[3.2.1]octan-3-yl)pyridin-3-yl)benzyl)-16,16,16-trifluoro-9-hydroxy-15,15-dimethyl-8-(4-((6-(8-(oxetan-3-yl)-3,8-diazabicyclo [3.2.1]octan-3-yl)pyridin-3-yl)ethynyl)benzyl)-3,6,13-trioxo-5-(1,1,1-trifluoro-2-methylpropan-2-yl)-2-oxa-4,7,11,12-tetraazahexadecan-14-yl)carbamate]	6.79	<0.11	–	–
–	–	COC(=O)N[C@H](C(=O)N[C@@H](Cc1ccc(C#Cc2cnc(N3CC4CCC(C3)N4C3COC3)cc2C)cc1)[C@@H](O)CN(Cc1c(F)cc(-c2cnn(C(F)F)c2)cc1F)NC(=O)[C@@H](NC(=O)OC)C(C)(C)C(F)(F)F)C(C)(C)C(F)(F)F [Example 154, Methyl ((5S,8S,9S,14S)-11-(4-(1-(difluoromethyl)-1H-pyrazol-4-yl)-2,6-difluorobenzyl)-16,16,16-trifluoro-9-hydroxy-15,15-dimethyl-8-(4-((4-methyl-6-(8-(oxetan-3-yl)-3,8-diazabicyclo[3.2.1]octan-3-yl)pyridin-3-yl)ethynyl)benzyl)-3,6,13-trioxo-5-(1,1,1-trifluoro-2-methylpropan-2-yl)-2-oxa-4,7,11,12-tetraazahexadecan-14-yl)carbamate]	4.81	<0.11	<0.18	–
–	–	COC(=O)N[C@H](C(=O)N[C@@H](Cc1ccc(C#Cc2ccc(N3CC4CCC(C3)N4C3COC3)nc2)cc1)[C@@H](O)CN(Cc1ccc(-c2ccn(C(F)F)n2)cc1)NC(=O)[C@@H](NC(=O)OC)C(C)(C)C(F)(F)F)C(C)(C)C(F)(F)F [Example 158, Methyl ((5S,8S,9S,14S)-11-(4-(1-(difluoromethyl)-1H-pyrazol-3-yl)benzyl)-16,16,16-trifluoro-9-hydroxy-15,15-dimethyl-8-(4-((6-(8-(oxetan-3-yl)-3,8-diazabicyclo[3.2.1]octan-3-yl)pyridin-3-yl)ethynyl)benzyl)-3,6,13-trioxo-5-(1,1,1-trifluoro-2-methylpropan-2-yl)-2-oxa-4,7,11,12-tetraazahexadecan-14-yl)carbamate]	4.37	<0.11	0.22	–
<0.11	–	COC(=O)N[C@H](C(=O)N[C@@H](Cc1ccc(C#Cc2cnc(N3CCN(C)C(=O)C3)nc2)cc1)[C@@H](O)CN(Cc1c(F)cc(-c2ccn(C(F)F)n2)cc1F)NC(=O)[C@@H](NC(=O)OC)C(C)(C)C(F)(F)F)C(C)(C)C(F)(F)F [Example 159, methyl ((5S,8S,9S,14S)-11-(4-(1-(difluoromethyl)-1H-pyrazol-3-yl)-2,6-difluorobenzyl)-16,16,16-trifluoro-9-hydroxy-15,15-dimethyl-8-(4-((2-(4-methyl-3-oxopiperazin-1-yl)pyrimidin-5-yl)ethynyl)benzyl)-3,6,13-trioxo-5-(1,1,1-trifluoro-2-methylpropan-2-yl)-2-oxa-4,7,11,12-tetraazahexadecan-14-yl)carbamate]	–	–	–	3.83
<0.11	–	COC(=O)N[C@H](C(=O)N[C@@H](Cc1ccc(C#Cc2ccc(N3CC4(C3)CN(C3COC3)C4)nc2)cc1)[C@@H](O)CN(Cc1c(F)cc(-c2ccn(C(F)F)n2)cc1F)NC(=O)[C@@H](NC(=O)OC)C(C)(C)C(F)(F)F)C(C)(C)C(F)(F)F [Example 163, Methyl ((5S,8S,9S,14S)-11-(4-(1-(difluoromethyl)-1H-pyrazol-3-yl)-2,6-difluorobenzyl)-16,16,16-trifluoro-9-hydroxy-15,15-dimethyl-8-(4-((6-(6-(oxetan-3-yl)-2,6-diazaspiro[3.3]heptan-2-yl)pyridin-3-yl)ethynyl)benzyl)-3,6,13-trioxo-5-(1,1,1-trifluoro-2-methylpropan-2-yl)-2-oxa-4,7,11,12-tetraazahexadecan-14-yl)carbamate]	–	–	–	2.32
0.56	3.2	COC(=O)N[C@H](C(=O)N[C@@H](Cc1ccc(C#Cc2ccc(N3C[C@@H]4CN(C5COC5)C[C@@H]4C3)nc2)cc1)[C@@H](O)CN(Cc1c(F)cc(-c2ccn(C(F)F)n2)cc1F)NC(=O)[C@@H](NC(=O)OC)C(C)(C)C(F)(F)F)C(C)(C)C(F)(F)F [Example 165, Methyl ((5S,8S,9S,14S)-11-(4-(1-(difluoromethyl)-1H-pyrazol-3-yl)-2,6-difluorobenzyl)-16,16,16-trifluoro-9-hydroxy-15,15-dimethyl-8-(4-((6-((3aR,6aS)-5-(oxetan-3-yl)hexahydropyrrolo[3,4-c]pyrrol-2(1H)-yl)pyridin-3-yl)ethynyl)benzyl)-3,6,13-trioxo-5-(1,1,1-trifluoro-2-methylpropan-2-yl)-2-oxa-4,7,11,12-tetraazahexadecan-14-yl)carbamate]	4.05	–	–	–
–	–	CCN1C2CCC1CN(c1ccc(C#Cc3ccc(C[C@H](NC(=O)[C@@H](NC(=O)OC)C(C)(C)C(F)(F)F)[C@@H](O)CN(Cc4c(F)cc(-c5cnn(C(F)F)c5)cc4F)NC(=O)[C@@H](NC(=O)OC)C(C)(C)C(F)(F)F)cc3)cn1)C2 [Example 167, Methyl ((5S,8S,9S,14S)-11-(4-(1-(difluoromethyl)-1H-pyrazol-4-yl)-2,6-difluorobenzyl)-8-(4-((6-(8-ethyl-3,8-diazabicyclo[3.2.1]octan-3-yl)pyridin-3-yl)ethynyl)benzyl)-16,16,16-trifluoro-9-hydroxy-15,15-dimethyl-3,6,13-trioxo-5-(1,1,1-trifluoro-2-methylpropan-2-yl)-2-oxa-4,7,11,12-tetraazahexadecan-14-yl)carbamate]	4.97	<0.11	–	–
–	–	COC(=O)N[C@H](C(=O)N[C@@H](Cc1ccc(C#Cc2ccc(N3CC4CCC(C3)N4C)nc2)cc1)[C@@H](O)CN(Cc1c(F)cc(-c2cnn(C(F)F)c2)cc1F)NC(=O)[C@@H](NC(=O)OC)C(C)(C)C(F)(F)F)C(C)(C)C(F)(F)F [Example 168, Methyl ((5S,8S,9S,14S)-11-(4-(1-(difluoromethyl)-1H-pyrazol-4-yl)-2,6-difluorobenzyl)-16,16,16-trifluoro-9-hydroxy-15,15-dimethyl-8-(4-((6-(8-methyl-3,8-diazabicyclo[3.2.1]octan-3-yl)pyridin-3-yl)ethynyl)benzyl)-3,6,13-trioxo-5-(1,1,1-trifluoro-2-methylpropan-2-yl)-2-oxa-4,7,11,12-tetraazahexadecan-14-yl)carbamate]	5.48	0.19	2.42	–
0.18	0.69	COC(=O)N[C@H](C(=O)N[C@@H](Cc1ccc(C#Cc2ccc(N3C[C@@H]4C[C@H]3CN4C3COC3)nc2)cc1)[C@@H](O)CN(Cc1c(F)cc(-c2ccn(C(F)F)n2)cc1F)NC(=O)[C@@H](NC(=O)OC)C(C)(C)C(F)(F)F)C(C)(C)C(F)(F)F [Example 174, Methyl ((5S,8S,9S,14S)-11-(4-(1-(difluoromethyl)-1H-pyrazol-3-yl)-2,6-difluorobenzyl)-16,16,16-trifluoro-9-hydroxy-15,15-dimethyl-8-(4-((6-((1S,4S)-5-(oxetan-3-yl)-2,5-diazabicyclo[2.2.1]heptan-2-yl)pyridin-3-yl)ethynyl)benzyl)-3,6,13-trioxo-5-(1,1,1-trifluoro-2-methylpropan-2-yl)-2-oxa-4,7,11,12-tetraazahexadecan-14-yl)carbamate]	2.33	–	–	–
–	–	COC(=O)N[C@H](C(=O)N[C@@H](Cc1ccc(C#Cc2ccc(N3CC4CC(C3)N4C3COC3)nc2)cc1)[C@@H](O)CN(Cc1c(F)cc(-c2ccccn2)cc1F)NC(=O)[C@@H](NC(=O)OC)C(C)(C)C(F)(F)F)C(C)(C)C(F)(F)F [Example 175, Methyl ((5S,8S,9S,14S)-11-(2,6-difluoro-4-(pyridin-2-yl)benzyl)-16,16,16-trifluoro-9-hydroxy-15,15-dimethyl-8-(4-((6-(6-(oxetan-3-yl)-3,6-diazabicyclo[3.1.1]heptan-3-yl)pyridin-3-yl)ethynyl)benzyl)-3,6,13-trioxo-5-(1,1,1-trifluoro-2-methylpropan-2-yl)-2-oxa-4,7,11,12-tetraazahexadecan-14-yl)carbamate]	2.17	0.67	0.7	–
